{
  "source": "patent US20020183388A1",
  "about": "“Use of retinoids plus histone deacetylase inhibitors to inhibit the growth of solid tumors” (priority 2001, published 2002)",
  "key": {"[1]": {"system": "SCC-15 human head and neck cancer cells", "assay": "Growth assay of SCC-15 cells, cell number counted", "assay_type": "cell-based", "settings": "SCC-15, 168 h, day 7, TSA 8 ng/ml, 1 μM retinoic acid, 1 μM retinol, drugs added only at time 0, read-out: inhibition of cell growth (FIG. 19)", "description": "(§1) Data was plotted using Prism 3.0.\nCells were treated as indicated. Drugs were added only at time 0. Cell number was counted on days 0, 3, 5, and 7.\nCell number was counted on days 0, 3, 5, and 7. In this experiment, a low dose of TSA (8 ng/ml) was used alone or in combination with 1 μM retinoic acid or 1 μM retinol. Drugs were added only at time 0."}, "[2]": {"system": "PC-3 human prostate cancer cells", "assay": "Growth assay of PC-3 cells, cell number counted", "assay_type": "cell-based", "settings": "day 7; low dose TSA; drugs added only once on day 0", "description": "as §1\nResults of growth assays of the human prostate cancer cell line PC-3, are depicted in FIG. 20. Cells were treated as indicated. Cell number was counted on days 0, 3, 5, and 7. Drugs were added only once on day 0. TSA alone, retinoic acid alone, and retinol alone each inhibited cell growth by approximately 20% at day 7. The combination of low dose TSA plus retinoic acid or low dose TSA plus retinol inhibited cell growth by almost 60%."}, "[3]": {"system": "LnCap human prostate cancer cells", "assay": "Growth assay of LnCap cells, cell number counted", "assay_type": "cell-based", "settings": "168 h, day 7, 1 μM retinoic acid, 1 μM retinol, 0.5 μM valproic acid, drugs added only once at time 0, read-out: inhibition of cell growth (FIG. 17)", "description": "as §1\nCell number was counted on days 0, 3, 5, and 7. In this experiment, retinoic acid was employed alone at 1 μM. Retinol (vitamin A) was employed at 1 μM. Valproic acid, a histone deacetylase inhibitor, was employed at 0.5 μM alone. Combinations of these drugs were also used. All drugs were added only once, at time 0, in this experiment. […] Valproic acid (VPA) alone inhibited cell growth by approximately 40%. The combination of retinoic acid plus VPA inhibited cell growth by 75%, as did the combination of valproic acid plus retinol."}, "[4]": {"system": "MB-435 human breast cancer cells", "assay": "Growth assay of MB-435 cells by MTT", "assay_type": "cell-based", "description": "96 well tissue culture dishes were seeded with 10^4 cells/well in 200 μL DME tissue culture medium supplemented with 10% fetal calf serum (FCS).\nThis assay detects color which is proportional to the number of cells present. Tissue culture medium containing drugs was removed and 200 µL of DME containing 2 mg/mL MTT ((3-4, 5-dimethyl thiazol-2yl) 2,5-diphenyltetrazolium bromide) was added to each well. Plates were incubated at 37° C. and 10% CO2 for 30 minutes. Medium containing MTT was then removed and the cells were washed once with PBS. Following removal of the PBS, 200 μL DMSO was added to each well and plates were placed on a rotating platform shaker for 5 minutes. Results were obtained by reading the absorbance at a wavelength of 550 nm using a spectrophotometer. Data was plotted using Prism 3.0.\nCells were plated in wells on day 0. Drugs were added on day 0 and again on days 3 and 5. The MTT assay was carried out on days 5 and 7. 1 μM of retinoic acid was used vs. 1 μM of liposomal retinoic acid (ATRA-IV). A very low dose (2 ng/ml) of trichostatin A (TSA) was also used. In addition, another inhibitor of histone deacetylases, 500 μM phenylbutyrate, was used. Various combinations of the drugs were also used in the growth assays.\nCells were treated as indicated."}, "[5]": {"system": "SK-RC-45 human renal carcinoma cells", "assay": "Growth assay of SK-RC-45 cells, cell number counted", "experimental": "Liposome encapsulated ATRA (ATRA-IV, Antigenics Inc., New York, N.Y.) was reconstituted from 100 mg vials with 50 ml of 0.9% saline. Powdered ATRA was dissolved in EtOH to make a 1 mM ATRA (Sigma, St. Louis, Mo.) stock which was stored at −80° C. Trichostatin A (Wako Pure Chemical Industries, Ltd., Osaka, Japan) was dissolved in 5 ml of EtOH to make a 1 mg/ml stock and sodium phenylbutyrate (NaPBA, Triple Crown America, Perkasie, Pa.) was prepared weekly from the powdered form to make a 25 mM stock solution. Cell lines were maintained in Minimal Essential Medium supplemented with 7% fetal calf serum, non-essential amino acids, and 1% penicillin/streptomycin (7% MEM). Empty liposomes (provided by Antigenics Inc.) were diluted in 10 ml of 0.9% saline to equal the same concentration of liposomes in the lipoATRA.\n(§2) 24 well tissue culture dishes were seeded with cells in 1 mL tissue culture medium (Clonetics) at 10^4 cells/well. Cells were incubated overnight at 37° C. in 10% CO2. Fresh medium containing drugs: Ethanol control (EtOH), 1 μM retinoic acid (RA), 2ng/mL trichostatin A (TSA), 25 μM sodium phenylbutyrate (PBa), and combinations of these were added the next day (day zero). Fresh medium containing drugs was added on days 3 and 5. Cells were trypsinized on days 0, 3, 5, and 7 and cell number was determined using a Z1 Coulter particle counter. […] Error bars are the standard error mean (SEM) of 4 replicate wells.\nCells were treated as indicated. The cell number was counted on day 7.\nCells were treated as indicated and cell number was counted."}, "[6]": {"system": "SK-RC-01 human renal carcinoma cells", "assay": "Growth assay of SK-RC-01 cells, cell number counted", "settings": "for inhibition of cell growth (FIG. 7): retinoic acid", "experimental": "Trichostatin A (Wako Pure Chemical Industries, Ltd., Osaka, Japan) was dissolved in 5 ml of EtOH to make a 1 mg/ml stock and sodium phenylbutyrate (NaPBA, Triple Crown America, Perkasie, Pa.) was prepared weekly from the powdered form to make a 25 mM stock solution. Cell lines were maintained in Minimal Essential Medium supplemented with 7% fetal calf serum, non-essential amino acids, and 1% penicillin/streptomycin (7% MEM).\nas §2\nCells were treated as indicated. The cell number was counted at day 7.\nThe cell number was counted on day 7."}, "[7]": {"system": "HMEC normal human mammary epithelial cells (primary cultures)", "assay": "Growth assay of HMEC cells, cell number counted", "assay_type": "cell-based", "settings": "cells counted days 0, 3, 5, 7, 1 μM retinoic acid, 2 ng/ml TSA, 25 μM phenylbutyrate", "description": "Also used were HMEC cells, which are cells from a normal human mammary epithelial cell line (primary cultures).\nas §1\nThe drugs were added as described above, and cells were counted on days 0, 3, 5, and 7. […] However, in the body, most normal cells are not rapidly dividing as tumor cells are. […] This experiment was primarily performed in order to determine if the retinoid and histone deacetylase inhibitor combination worked similarly in tumor and normal epithelial cells."}, "[8]": {"system": "SK-RC-39 cells (subcutaneous xenograft)", "assay": "Human tumor xenograft model in nu/nu mice", "assay_type": "in vivo", "description": "Forty Swiss nu/nu mice were injected in the right flank subcutaneously with 5×10^6 SK-RC-39 cells that had been cultured in 7% MEM and then trypsinized. Four days later, four cohorts of 10 mice each began to receive one tail vein injection of TSA or control and one injection of ATRA-IV or control every Monday, Wednesday and Friday for the duration of the experiment. The four treatment groups were as follows: (1) PBS with 1% EtOH+empty liposomes; (2) LipoATRA (7.4-8.1 mg/kg)+PBS with 1% EtOH; (3) TSA ([…])+empty liposomes; and (4) TSA+LipoATRA. The study ended in the eighth week of treatment and at least six animals remained in each arm at the conclusion of the study and were considered evaluable. The animals tolerated the treatment well and gained weight throughout the treatment course. […] The tumor growth inhibition observed in the TSA+LipoATRA arm was much greater than that observed in the control arm. While the difference between the TSA+LipoATRA and the TSA+empty liposome arm was significant (FIG. 16), both of these treatments led to a very statistically significant difference in growth as compared to the control arm."}, "[9]": {"system": "SK-RC-39 human renal carcinoma cells", "assay": "Growth assay of SK-RC-39 cells, cell number counted", "assay_type": "cell-based", "settings": "low dose TSA", "description": "as §1\nThe cells were counted at day 7. A small amount of ethanol was added to the control cells, as a vehicle and solvent for the retinoic acid.\nCulture conditions were as shown. […] The term EtOH indicates the control cells, treated with a very low amount of ethanol, the same amount used to dissolve retinoic acid."}, "[10]": {"settings": "cells counted at day 7, low dose TSA"}, "[11]": {"settings": "cells counted on day 7, 1 μM retinoic acid, low dose TSA"}},
  "data": [
    {"molecule": "CC1=C(/C=C/C(C)=C/C=C/C(C)=C/CO)C(C)(C)CCC1", "note": "[retinol]", "values": [
      {"measurement": "inhibition at 1 µM", "setting": "[1]", "value": "35 to 40", "unit": "%"},
      {"measurement": "inhibition of cell growth (FIG. 20)", "setting": "[2]", "value": "approximately 20%"},
      {"measurement": "inhibition at 1 µM", "setting": "[3]", "value": "~27", "unit": "%"}
    ]},
    {"molecule": "CC1=C(/C=C/C(C)=C/C=C/C(C)=C/C(=O)O)C(C)(C)CCC1", "note": "[retinoic acid, 3, 7 dimethyl-9-(2,6,6-trimethyl-1-cyclohenen-1-yl)-2,4,6,8,-nonatetraenoic acid]", "values": [
      {"measurement": "inhibition at 1 µM", "setting": "[4]; Homo sapiens, 168 h, day 7, 1 μM retinoic acid, 1 μM ATRA-IV, 2 ng/ml TSA, 500 μM phenylbutyrate, drugs added days 0, 3, 5, read-out: inhibition of cell growth (FIG. 1)", "value": "~20", "unit": "%"},
      {"measurement": "inhibition at 1 µM", "setting": "[1]", "value": "35 to 40", "unit": "%"},
      {"measurement": "inhibition of cell growth (FIG. 20)", "setting": "[2]", "value": "approximately 20%"},
      {"measurement": "inhibition at 1 µM", "setting": "[3]", "value": 25, "unit": "%"},
      {"measurement": "inhibition at 1 µM", "setting": "[5]; Homo sapiens, 168 h, read-out: inhibition of cell growth (FIG. 8)", "value": "55 to 60", "unit": "%"},
      {"measurement": "inhibition at 1 µM", "setting": "[6]; Homo sapiens, 168 h, read-out: inhibition of cell growth (FIG. 12)", "value": 12.5, "unit": "%"},
      {"measurement": "inhibition of cell growth (FIG. 7)", "setting": "[6]; [10]", "value": "~10", "unit": "%"},
      {"measurement": "inhibition at 1 µM", "setting": "[7]; Homo sapiens, HMEC, read-out: inhibition of cell growth (FIG. 2)", "value": "~50", "unit": "%"}
    ]},
    {"molecule": "CC(/C=C/C(=O)NO)=C\\[C@@H](C)C(=O)c1ccc(N(C)C)cc1", "note": "[TSA, trichostatin A]", "values": [
      {"measurement": "growth inhibition, high dose TSA (FIG. 3)", "setting": "[4]; TSA 100 ng/ml", "value": "complete growth inhibition"},
      {"measurement": "inhibition of cell growth (FIG. 1)", "setting": "[4]; day 7, 1 μM retinoic acid, 1 μM ATRA-IV, 2 ng/ml TSA, 500 μM phenylbutyrate, drugs added days 0, 3, 5", "value": "did not inhibit cell growth"},
      {"measurement": "comparison of cell growth reduction between treatments (FIG. 3)", "setting": "[4]; days 3, 5, 7", "value": "better in reducing cell growth than phenylbutyrate"},
      {"measurement": "toxicity, histologic analysis of the liver, lung, spleen and kidneys", "setting": "[8]; nu/nu mice, tail vein injection Mon/Wed/Fri for eight weeks", "value": "lack of toxicity"},
      {"measurement": "inhibition of tumor growth compared to control (FIG. 16)", "setting": "[8]; tail vein injection Mon/Wed/Fri, eighth week of treatment, LipoATRA 7.4-8.1 mg/kg, TSA 34-41 μg/ml", "value": 38, "unit": "%"},
      {"measurement": "inhibition of cell growth (FIG. 6)", "setting": "[9]; cells counted at day 7, retinoic acid", "value": "80-90%"},
      {"measurement": "inhibition of cell growth (FIG. 9)", "setting": "[9]; cells counted on day 7, 1 μM retinoic acid", "value": "approximately 75%"},
      {"measurement": "inhibition of cell growth (FIG. 20)", "setting": "[2]", "value": "approximately 20%"},
      {"measurement": "inhibition of cell growth (FIG. 8)", "setting": "[5]; [11]", "value": "60-65%"},
      {"measurement": "inhibition of cell growth, high dose TSA (FIG. 8)", "setting": "[5]; cells counted on day 7, TSA 100 ng/ml", "value": "extremely effective in inhibiting kidney cancer cell growth"},
      {"measurement": "inhibition of cell growth, high dose TSA (FIG. 7)", "setting": "[6]; cells counted at day 7, TSA 100 ng/ml", "value": "roughly 100%"},
      {"measurement": "inhibition of cell growth (FIG. 7)", "setting": "[6]; [10]", "value": "20-25%"},
      {"measurement": "inhibition of cell growth (FIG. 12)", "setting": "[6]; [11]", "value": "approximately 25%"},
      {"measurement": "inhibition of cell growth, high dose TSA (FIG. 12)", "setting": "[6]; cells counted on day 7, high dose TSA", "value": "greater than 95%"},
      {"measurement": "inhibition of cell growth (FIG. 2)", "setting": "[7]", "value": "about 50%"}
    ]},
    {"molecule": "CCCC(CCC)C(=O)O", "note": "[Valproic acid]", "values": [
      {"measurement": "inhibition at 0.5 µM", "setting": "[3]", "value": "~40", "unit": "%"}
    ]}
  ]
}
